From patent US4376773A, “10-Substituted 5-cyanomethylene-10,11-dihydro-dibenzo-[a,d]-cycloheptenes, their preparation, and therapeutic agents containing these compounds” (BASF Aktiengesellschaft, priority 1980, dated 1983)
Where two headings read alike, the source gives them in different places.

Experiments:
[1] = system: methamphetamine-antagonism (sniffing movements); assay: Antimethamphetamine action: methamphetamine-induced sniffing movements; type: in vivo, rat; conditions: for ED50: ip, 0.5 h, rat, intraperitoneal, 30 min before methamphetamine 2.5 mg/kg i.v., read-out: Antimethamphetamine action ED 50%; for Antimethamphetamine action R.A. (relative activity): clozapine = 1.00
Experimental: Methamphetamine (2.5 mg/kg administered intravenously) regularly causes the following symptoms in rats: motor restlessness, searching and sniffing movements, bristling fur and tremor (Janssen et al., Arzneim.-Forsch./DrugRes. 13 (1963), 205; Randrug et al., Psychopharmacologia 11 (1967), 300). The test substances are administered intraperitoneally, 30 minutes before the methamphetamine. The criterion of whether a compound has an effect is whether the sniffing movements remain absent over 5 minutes' observation after the injection of methamphetamine. That dose is determined as the mean inhibitory dose (ED 50%) by means of Probit analysis which prevents the symptom in half the number of animals. Number of animals examined per dose: 10.

[2] = system: tonic extensor reflex on the rabbit gastrocnemius; assay: Muscle-relaxing action: tonic extensor reflex; type: in vivo; conditions: for ED50: Oryctolagus cuniculus, rabbit, intravenous, dose reducing muscle activity to half, read-out: Muscle relaxation ED 50%; for Muscle relaxation R.A. (relative activity): clozapine = 1.0
Description: The measurement is based on quantifying the tonic extensor reflex on the rabbit gastrocnemius (Teschendorf et al., Arch. Pharmacol. exp. Path. 266 (1970), 462). The rabbit is fixed in a special apparatus which permits bending the paw at the talocalcanean joint in a defined and reproducible manner. As a result of this bending, a tonic extensor reflex is triggered in the […]. The electrical activity of the muscle during contraction is registered and the individual pulses are counted. The extension (duration 5 s) is repeated at intervals of one minute. After a constant number of pulses has been reached (constituting the control value), the test compound is administered intravenously. The number of pulses after administration is related to the previous value. For each dose investigated, 4-6 animals are used. The ED 50% is the dose which reduces the muscle activity to half, based on the initial value.

[3] = system: orientation hypermotility; assay: Sedative action: orientation hypermotility in mice; type: in vivo, mouse (female NMRI); conditions: for ED50: Mus musculus, 0.5 h, mice, oral, 30 min after administration, 50% decrease in orientation hypermotility vs placebo, read-out: Sedation ED 50%; for Sedation R.A. (relative activity): clozapine = 1.0
Experimental: 4-8 groups of 3 female NMRI mice are given the compound orally. The orientation hypermotility induced by a new environment is determined photoelectrically, 30 minutes after administration of the compound, for a period of 30 minutes. The ED50 is the dose which produces a decrease in orientation hypermotility by 50%, compared to control animals treated with placebo.

[4] = system: apomorphine-antagonism (mandibular movements); assay: Antiapomorphine action: apomorphine-triggered mandibular movements; type: in vivo, rat (female Sprague-Dawley); conditions: for ED50: 1.5 h, read-out: Antiapomorphine action ED 50%; for Antiapomorphine action R.A. (relative activity): clozapine = 1.00
Experimental: The test substances are administered orally 90 minutes before the apomorphine.

Acute toxicity = conditions: mouse, in vivo, ip; mice, intraperitoneal; read-out: Toxicity LD 50
Experimental: Groups of 5-10 female NMRI mice are given the compounds intraperitoneally. The LD 50 is determined as the dose after which 50% of the treated animals die.

death from physostigmine = assay: Anticholinergic action: protection against physostigmine lethality; type: in vivo, mouse (female NMRI); conditions: mice, oral, 30 min before physostigmine 0.825 mg/kg s.c.; dose protecting 50% against death
Experimental: Groups of 10 female NMRI mice are given physostigmine subcutaneously, at a lethal dose (0.825 mg/kg). The test substances are administered orally 30 minutes before the administration of physostigmine.
The ED 50% is determined as the dose of compound which protects 50% of the animals against death from physostigmine.

[5] = rat, oral, 90 min before apomorphine 1.5 mg/kg s.c.

Row | SMILES | ED50 [1] [mg/kg] | Antimethamphetamine action R.A. (relative activity) [1] | ED50 [2] [mg/kg] | muscle-relaxing action compared with comparative substances ([2]; in words, vs clozapine and perlapine) | Muscle relaxation R.A. (relative activity) [2] | ED50 [3] [mg/kg] | Sedation R.A. (relative activity) [3] | ED50 ([4]; Rattus norvegicus, po) [mg/kg] | Antiapomorphine action R.A. (relative activity) [4] | ED50 [4, 5] [mg/kg] | LD50 (Acute toxicity) [mg/kg] | ED50 protecting against physostigmine lethality (death from physostigmine)
1 | CN1CCN(C2Cc3cc(Cl)ccc3C(=CC#N)c3ccccc32)CC1 (mixture of isomers) [Example 4, cis,trans-2-Chloro-5-cyanomethylene-10-(4-methylpiperazin-1-yl)-10,11-dihydro-dibenzo[a,d]-cycloheptene] | 4.6 | 8.04 | 0.02 | markedly surpasses those of the comparative substances | 2.30 | 5.5 | 0.86 |  |  |  |  | 
2 | CN1CCN(C2=Nc3ccccc3Cc3ccccc32)CC1 [Perlapine, perlapine, reference compound] | 31 | 1.19 | 0.1 |  | 0.46 | 2.01 | 2.36 | 21.5 | 0.37 |  |  | 
3 | CN1CCN(C2=Nc3cc(Cl)ccc3Nc3ccccc32)CC1 [Clozapine, clozapine, reference compound] | 37 | 1.00 | 0.046 |  | 1.0 |  | 1.0 |  | 1.00 | 8 |  | 
4 | CCN1CCN(C2Cc3ccccc3C(=CC#N)c3ccccc32)CC1 (mixture of isomers) [Example 5, cis,trans-5-Cyanomethylene-10-(4-ethyl-piperazin-1-yl)-10,11-dihydro-dibenzo[a,d]-cycloheptene. 1/2 H2 O] | 13 | 2.85 | 0.1 |  | 0.46 | 6.7 | 0.71 |  |  |  | > 100 | > 46.4
5 | CN1CCN(C2Cc3ccccc3C(=CC#N)c3ccccc32)CC1 (mixture of isomers) [Example 1, cis,trans-5-Cyanomethylene-10-(4-methyl-piperazin-1-yl)-10,11-dihydro-dibenzo[a,d]-cycloheptene. 1/2 H2 O] | 5.4 | 6.85 | 0.1 |  | 0.46 | 5.6 | 0.85 |  |  |  | > 100 | > 46.4
6 | C[N+]1([O-])CCN(C2Cc3ccccc3C(=CC#N)c3ccccc32)CC1 (mixture of isomers) [Example 8, cis, trans-5-Cyanomethylene-10-(4-methyl-4-oxy-piperazin-1-yl)-10,11-dihydro-dibenzo[a,d]-cycloheptene. 1/2 H2 O] | 39 | 0.95 |  |  |  | 15.2 | 0.31 |  | 1.14 | 7 | > 100 | > 100
7 | N#CC=C1c2ccccc2CC(N2CCN(CCO)CC2)c2ccccc21 (mixture of isomers) [Example 7, cis,trans-5-Cyanomethylene-10-(N-β-hydroxyethyl-piperazin-1-yl)-10,11-dihydro-dibenzo[a,d]-cycloheptene. 1/2 H2 O] | 30 | 1.23 |  |  |  | 10 | 0.47 |  |  |  | > 100 | > 100
